Assay results published in the supplement of paper PMC10307832.

Compound: c1ccc2c(CCNc3ccc(Nc4ccncc4)cc3)c[nH]c2c1 [Serdemetan] + NC(=O)Nc1cc(-c2cccc(F)c2)sc1C(=O)N[C@H]1CCCNC1 [AZD7762] (partner 0.2 µM)
Assay: relative viability (nuclei count vs DMSO), 5 days (fraction); higher = more cells survive
Settings: first compound 0.04 µM
Outline: (§1)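 For relative viability, nuclei counts in treated wells were divided by those in vehicle wells. Lung cancer cell lines had been pin-tool dosed in 1536-well plates the day after seeding and cultured for 5 days, then fixed and stained in one step (final 0.05% Triton X-100, 1% formaldehyde, 1 ug/ml Hoechst) and imaged at 4×. Doses were one drug alone or a fixed anchor-drug dose plus five library-drug doses (not always all listed) in √10 steps, and values are duplicate-plate medians.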

Cell Line	relative viability
HARA	0.298
HCC-78	0.578
NCI-H322M	0.565
LCLC-97TM1	0.304
A-427	0.759
NCI-H441	1.28
NCI-H1734	0.375
NCI-H460	0.461
NCI-H2347	0.673
NCI-H1395	0.42
201T	0.624

Same assay, conditions: first compound 0.1265 µM

Cell Line	relative viability
HOP-62	0.544
HCC-44	1.01
LU99A	0.347
BEN	0.545
HARA	0.196
HCC-78	0.571
NCI-H322M	0.573
LCLC-97TM1	0.232
A-427	0.671
NCI-H441	1.19
NCI-H1734	0.268
NCI-H460	0.547
NCI-H2347	0.686
NCI-H1395	0.398
201T	0.502

Same assay, conditions: first compound 0.4 µM

Cell Line	relative viability
HOP-62	0.731
HCC-44	0.994
LU99A	0.212
BEN	0.662
HARA	0.266
HCC-78	0.514
NCI-H322M	0.533
LCLC-97TM1	0.255
A-427	0.664
NCI-H441	1.05
NCI-H1734	0.266
NCI-H460	0.571
NCI-H2347	0.668
NCI-H1395	0.415
201T	0.846

Same assay, conditions: first compound 1.265 µM

Cell Line	relative viability
HOP-62	0.519
HCC-44	0.936
LU99A	0.117
BEN	0.556
HARA	0.23
HCC-78	0.589
NCI-H322M	0.524
LCLC-97TM1	0.184
A-427	0.538
NCI-H441	0.858
NCI-H1734	0.104
NCI-H460	0.229
NCI-H2347	0.462
NCI-H1395	0.369
201T	0.378

Same assay, conditions: first compound 4 µM

Cell Line	relative viability
HOP-62	0.49
HCC-44	0.934
LU99A	0.14
BEN	0.641
HARA	0.304
HCC-78	0.503
NCI-H322M	0.43
LCLC-97TM1	0.211
A-427	0.495
NCI-H441	0.548
NCI-H1734	0.144
NCI-H460	0.141
NCI-H2347	0.406
NCI-H1395	0.384
201T	0.422

Compound: c1ccc2c(CCNc3ccc(Nc4ccncc4)cc3)c[nH]c2c1 [Serdemetan] + Nc1ncn([C@H]2C[C@H](O)[C@@H](CO)O2)c(=O)n1 [Decitabine] (partner 2 µM)
Assay: as above
Settings: first compound 0.04 µM
Outline: as §1

Cell Line	relative viability
HOP-62	0.195
HCC-44	0.895
LU99A	0.943
BEN	0.649
HARA	0.542
HCC-78	0.659
NCI-H322M	0.667
LCLC-97TM1	0.232
A-427	0.555
NCI-H441	0.256
NCI-H1734	0.44
NCI-H460	0.374
NCI-H2347	0.638
NCI-H1395	0.772
201T	0.863

Same assay, conditions: first compound 0.1265 µM

Cell Line	relative viability
HOP-62	0.256
HCC-44	0.954
LU99A	0.84
BEN	0.612
HARA	0.47
HCC-78	0.718
NCI-H322M	0.675
LCLC-97TM1	0.213
A-427	0.56
NCI-H441	0.22
NCI-H1734	0.26
NCI-H460	0.385
NCI-H2347	0.615
NCI-H1395	0.694
201T	0.801

Same assay, conditions: first compound 0.4 µM

Cell Line	relative viability
HOP-62	0.22
HCC-44	0.925
LU99A	0.775
BEN	0.726
HARA	0.409
HCC-78	0.698
NCI-H322M	0.682
LCLC-97TM1	0.239
A-427	0.606
NCI-H441	0.249
NCI-H1734	0.226
NCI-H460	0.314
NCI-H2347	0.583
NCI-H1395	0.687
201T	0.783

Same assay, conditions: first compound 1.265 µM

Cell Line	relative viability
HOP-62	0.196
HCC-44	0.865
LU99A	0.419
BEN	0.631
HARA	0.344
HCC-78	0.638
NCI-H322M	0.534
LCLC-97TM1	0.175
A-427	0.513
NCI-H441	0.219
NCI-H1734	0.111
NCI-H460	0.194
NCI-H2347	0.474
NCI-H1395	0.637
201T	0.489

Same assay, conditions: first compound 4 µM

Cell Line	relative viability
HOP-62	0.177
HCC-44	0.961
LU99A	0.277
BEN	0.647
HARA	0.379
HCC-78	0.525
NCI-H322M	0.647
LCLC-97TM1	0.165
A-427	0.45
NCI-H441	0.172
NCI-H1734	0.188
NCI-H460	0.102
NCI-H2347	0.527
NCI-H1395	0.57
201T	0.593
